The results in this text go back to US9233965B2, “3,4-dihydropyrrolo[1,2-A]pyrazine-2,8(1H)-dicarboxamide derivatives, preparation thereof and therapeutic use thereof for diseases involving casein kinase 1 epsilon and/or casein kinase 1 delta” (SANOFI, priority 2010, dated 2016).

Structures are written as SMILES. A value given as a limit tells only on which side of the number the result lay.

In data set [1] the target is casein kinase 1 epsilon (CK1 epsilon) (Homo sapiens (Human), UniProt P49674). As to the kind of experiment: Test A: inhibitory activity on CK1 epsilon, casein phosphorylation assay on ATP-33P filter plate. It counts as biochemical. As to conditions: IC50 values or IC50 ranges (result of several experiments), ATP 10 μM final. An outline of the steps:
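Human CK1 epsilon (3 ng/μL final) phosphorylates dephosphorylated casein (0.2 μg/μL) with ATP-33P plus 10 μM cold ATP (KM for ATP 21 μM), 2 h at room temperature, pH 7.5 Tris buffer. TCA-precipitated protein counted by scintillation; compounds at 10 to 0.001 μM give IC50 values or % inhibition at 10 μM.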

In general, IC50 refers to the concentration that gives 50% inhibition. The low end stands for greater potency in that assay, the high end for weaker potency in that assay. For orientation: melting point means the temperature of the solid-liquid transition.

Sequence of casein kinase 1 epsilon (CK1 epsilon) (P49674 whole entry): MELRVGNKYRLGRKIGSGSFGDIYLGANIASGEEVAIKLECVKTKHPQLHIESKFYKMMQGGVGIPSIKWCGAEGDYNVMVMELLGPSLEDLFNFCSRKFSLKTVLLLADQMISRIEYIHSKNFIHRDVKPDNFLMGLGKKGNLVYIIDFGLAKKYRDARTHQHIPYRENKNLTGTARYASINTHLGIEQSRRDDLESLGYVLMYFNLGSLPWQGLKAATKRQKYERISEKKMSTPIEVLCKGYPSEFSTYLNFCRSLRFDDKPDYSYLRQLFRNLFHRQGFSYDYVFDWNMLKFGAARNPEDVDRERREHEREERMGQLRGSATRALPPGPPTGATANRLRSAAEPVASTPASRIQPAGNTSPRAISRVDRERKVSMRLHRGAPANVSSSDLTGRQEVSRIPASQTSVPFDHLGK

Take `COc1ccc(-c2c(C(N)=O)c3n(c2C2CC2)CCN(C(=O)NC2(C4CC4)CC2)C3)cc1` [Compound 51, N^2-[1,1′-bi(cyclo-propyl)-1-yl]-6-cyclo-propyl-7-(4-methoxyphenyl)-3,4-dihydropyrrolo[1,2-a]pyrazine-2,8(1H)-dicarboxamide]: the melting point lay within 175 to 177 °C. Also, the midpoint of inhibition in data set [1], the IC50, lay at 40 nM.

For the compound `CC(C)CCNC(=O)N1CCn2c(Cl)c(-c3ccccc3)c(C(N)=O)c2C1` [Compound 69, 6-chloro-N^2-(3-methylbutyl)-7-phenyl-3,4-dihydropyrrolo[1,2-a]pyrazine-2,8(1H)-dicarboxamide], the melting point was in the range of 154 to 155 °C. For the same compound, 5 nM corresponded to half-maximal inhibition in data set [1] (IC50).

`NC(=O)c1c(-c2cccc(F)c2)c(Cl)n2c1CN(C(=O)NCCC(F)(F)F)CC2` [Compound 80, 6-chloro-7-(3-fluorophenyl)-N^2-(3,3,3-trifluoropropyl)-3,4-dihydropyrrolo[1,2-a]pyrazine-2,8(1H)-dicarboxamide] yielded a melting point of 119 to 124 °C. The compound also displayed an IC50 in data set [1] of 2 to 16 nM.

Consider `COc1ccc(-c2c(C(N)=O)c3n(c2C2CC2)CCN(C(=O)NC(C)(C)C)C3)cc1` [Compound 36, N^2-tert-butyl-6-cyclo-propyl-7-[4-(methoxy)phenyl]-3,4-dihydropyrrolo[1,2-a]pyrazine-2,8(1H)-dicarboxamide], for which the melting point lay in the range of 177 to 179 °C. The IC50 in data set [1] is 46 to 75 nM.

On to `NC(=O)c1c(-c2cccc(F)c2)c(Cl)n2c1CN(C(=O)N[C@H]1CC[C@H](O)CC1)CC2` [Compound 83, trans-6-chloro-7-(3-fluorophenyl)-N^2-(4-hydroxy-cyclo-hexyl)-3,4-dihydropyrrolo[1,2-a]pyrazine-2,8(1H)-dicarboxamide], for which the melting point was 251 to 253 °C. The IC50 in data set [1] was in the range of 2 to 4 nM.

Consider `CC(C)(C)NC(=O)N1CCn2c(F)c(-c3ccccc3)c(C(N)=O)c2C1` [Compound 58, N^2-tert-butyl-6-fluoro-7-phenyl-3,4-dihydropyrrolo[1,2-a]pyrazine-2,8(1H)-dicarboxamide], for which the melting point lay within 213 to 215 °C. The compound also had a 50% inhibitory concentration (IC50) in data set [1] of 5 to 28 nM.

`CC1(C)CC(NC(=O)N2CCn3c(Cl)c(-c4cccc(F)c4)c(C(N)=O)c3C2)CCO1` (stereo not shown) [Compound 99, 6-chloro-7-(3-fluorophenyl)-N^2-(2,2-dimethyl-tetrahydro-2H-pyran-4-yl)-3,4-dihydropyrrolo[1,2-a]pyrazine-2,8(1H)-dicarboxamide] returned a melting point of 141 to 143 °C. In data set [1], this compound displayed an IC50 of 4 nM.

`CC(C)(NC(=O)N1CCn2c(Cl)c(-c3cccc(F)c3)c(C(N)=O)c2C1)C(F)(F)F` [Compound 79, 6-chloro-7-(3-fluorophenyl)-N^2-(1,1,1-trifluoro-2-methylpropan-2-yl)-3,4-dihydropyrrolo[1,2-a]pyrazine-2,8(1H)-dicarboxamide] returned a melting point of 183 to 187 °C. The IC50 in data set [1] is 1 to 4 nM.

As for `CC(C)(NC(=O)N1CCn2c(C#N)c(-c3cccc(F)c3)c(C(N)=O)c2C1)C(F)(F)F` [Compound 107, 6-cyano-7-(3-fluorophenyl)-N^2-(1,1,1-trifluoro-2-methylpropan-2-yl)-3,4-dihydropyrrolo[1,2-a]pyrazine-2,8(1H)-dicarboxamide], the melting point lay in the range of 202 to 204 °C. In addition, the IC50 in data set [1] was less than 1 nM.

Consider `CC(C)(CO)CNC(=O)N1CCn2c(Cl)c(-c3cccc(C(F)(F)F)c3)c(C(N)=O)c2C1` [Compound 74, 6-chloro-N^2-(3-hydroxy-2,2-dimethylpropyl)-7-(3-trifluoromethyl-phenyl)-3,4-dihydropyrrolo[1,2-a]pyrazine-2,8(1H)-dicarboxamide], for which the melting point lay within 185 to 187 °C. Besides, half-maximal inhibition in data set [1] (IC50) was put at 6 nM.

`COc1ccc(-c2cn3c(c2C(N)=O)CN(C(=O)NC(C)(C)C)CC3)cc1` [Compound 2, N^2-tert-butyl-7-(4-methoxyphenyl)-3,4-dihydropyrrolo[1,2-a]pyrazine-2,8(1H)-dicarboxamide] had a melting point of 197 to 198 °C. This compound came in with an IC50 in data set [1] of less than 1 nM.
